Literature values, collected in patent US20260355230A1, “SODIUM BICARBONATE PRODUCT FOR CHILDBIRTH LABOR” (LAMINARIA GROUP AB, priority 2023, published 2026).

Experiments:
[1] = large amounts, particularly as an aqueous solution
[2] = 4.26 g sodium bicarbonate dissolved in water, oral

## O=C([O-])O.[Na+] [sodium bicarbonate]
[1]
  gastrointestinal side-effect: acute gastrointestinal (GI) distress
[2]
  pH in maternal blood: increased significantly
[2]; vs untreated group
  fetal outcome: a difference in fetal outcome was shown between the two groups
  frequency of spontaneous vaginal deliveries: substantially higher
[2]; vs untreated group, AFL >10.1 mmol/L
  AFL levels: fell significantly
